Experimental data: ChEMBL document CHEMBL1201862, “PubChem BioAssay data set” (2004)
Active and inactive are the calls of the source. For most assays here, no stated cut-off is given here; in the data, actives have a measured EC50 and inactives only a lower limit.

Tests used:
[1] = Luminescence Cell-Based Dose Confirmation HTS to Identify Activators of 5'UTR Stem-Loop Driven Alpha-Synuclein mRNA Translation in H4 Neuroglioblastoma Cells. [Related pubchem assays: 1829 (Project Summary), 1814 (Primary HTS)]; assay type: functional
[2] = Luminescence Cell-Based Dose Response HTS to Identify Activators of Luciferase Translation or Activity in H4 […] Cells. [Related pubchem assays: 1829 (Project Summary), 1814 (Primary HTS)]; assay type: functional
H4 = test: Luminescence Cell-Based Dose Response HTS to Identify Activators of 5'UTR Stem-Loop Driven Prion Protein mRNA Translation in H4 Neuroglioblastoma Cells. [Related pubchem assays: 1829 (Project Summary), 1814 (Primary HTS)]; assay type: functional; details: Homo sapiens
[3] = target: T1, Corticotropin-releasing factor receptor 2/Corticotropin-releasing factor-binding protein (Homo sapiens, UniProt P24387+Q13324); test: Dose Response confirmation of uHTS hits for small molecule antagonists of the CRF-binding protein and CRF-R2 receptor complex.; assay type: functional; details: read-out: IC50_Mean
T1 sequence (Q13324 whole entry): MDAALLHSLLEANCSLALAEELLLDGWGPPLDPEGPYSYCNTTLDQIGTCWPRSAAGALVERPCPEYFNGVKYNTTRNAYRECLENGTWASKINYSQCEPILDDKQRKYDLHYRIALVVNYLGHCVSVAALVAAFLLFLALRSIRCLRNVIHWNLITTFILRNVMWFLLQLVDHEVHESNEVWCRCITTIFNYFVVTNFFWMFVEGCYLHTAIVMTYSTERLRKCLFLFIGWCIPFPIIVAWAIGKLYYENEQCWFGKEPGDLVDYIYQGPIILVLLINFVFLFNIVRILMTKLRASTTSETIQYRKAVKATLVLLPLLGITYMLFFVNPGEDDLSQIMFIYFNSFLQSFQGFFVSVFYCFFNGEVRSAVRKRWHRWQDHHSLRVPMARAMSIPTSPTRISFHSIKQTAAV
T1 sequence (P24387 whole entry): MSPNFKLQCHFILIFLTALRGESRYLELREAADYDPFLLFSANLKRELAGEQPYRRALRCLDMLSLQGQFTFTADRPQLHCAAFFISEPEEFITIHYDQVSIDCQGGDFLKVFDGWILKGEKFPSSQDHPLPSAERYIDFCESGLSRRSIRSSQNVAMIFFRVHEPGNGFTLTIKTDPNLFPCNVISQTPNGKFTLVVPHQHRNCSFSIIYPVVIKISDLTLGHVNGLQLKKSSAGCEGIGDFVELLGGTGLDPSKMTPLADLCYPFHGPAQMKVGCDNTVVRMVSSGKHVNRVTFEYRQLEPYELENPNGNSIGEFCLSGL

[4] = target: T1, Corticotropin-releasing factor receptor 2/Corticotropin-releasing factor-binding protein; test: activators of CRF receptor 2 with binding protein – uHTS hits, confirmation (AID 602473); assay type: functional; details: read-out: EC50_Mean
[5] = target: T2, RNA-binding protein pos-1 (Caenorhabditis elegans, UniProt G5EF15); test: disruptors of C. elegans POS-1 RNA interaction – biochemical, fluorescence polarization, dose response (AID 1964);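 further: purified POS-1 fused to maltose binding protein made in E. coli; potency of compounds blocking POS-1 binding to fluorescent RNA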
T2 sequence (G5EF15 whole entry): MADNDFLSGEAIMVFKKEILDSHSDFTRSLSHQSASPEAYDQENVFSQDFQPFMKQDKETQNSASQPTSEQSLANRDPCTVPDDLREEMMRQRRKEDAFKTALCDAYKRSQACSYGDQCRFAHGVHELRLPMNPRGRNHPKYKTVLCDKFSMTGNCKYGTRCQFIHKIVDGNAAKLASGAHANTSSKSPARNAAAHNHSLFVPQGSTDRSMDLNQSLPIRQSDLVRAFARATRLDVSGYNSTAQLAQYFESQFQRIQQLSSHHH

[6] = target: T3, Zinc finger protein mex-5 (Caenorhabditis elegans, UniProt Q9XUB2); test: potency of MEX-5 RNA-binding blockers – biochemical, C. elegans, fluorescence polarization, dose response (AID 1960)
T3 sequence (Q9XUB2 whole entry): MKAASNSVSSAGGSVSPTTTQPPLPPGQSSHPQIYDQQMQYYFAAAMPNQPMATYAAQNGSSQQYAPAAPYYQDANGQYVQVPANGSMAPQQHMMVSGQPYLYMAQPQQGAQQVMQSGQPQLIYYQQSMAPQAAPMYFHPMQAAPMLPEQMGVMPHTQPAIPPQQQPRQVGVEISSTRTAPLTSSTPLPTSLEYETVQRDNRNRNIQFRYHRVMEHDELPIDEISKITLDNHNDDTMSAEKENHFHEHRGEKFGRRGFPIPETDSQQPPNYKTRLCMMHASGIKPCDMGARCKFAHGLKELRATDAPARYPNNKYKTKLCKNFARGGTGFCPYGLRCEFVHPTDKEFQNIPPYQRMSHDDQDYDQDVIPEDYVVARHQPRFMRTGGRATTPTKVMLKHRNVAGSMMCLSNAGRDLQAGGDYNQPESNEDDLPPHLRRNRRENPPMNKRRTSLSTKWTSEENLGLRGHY

[7] = NIH-3T3 fibroblast cytotoxicity, dose response, cytotoxicity control, cell-based, fluorescence, Alamar Blue, secondary assay (AID 2327); assay type: functional;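 further: NIH-3T3 mouse fibroblasts cultured with fluconazole at 8 µg/mL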
[8] = fluconazole-exposed Candida albicans growth modulators – fluorescence, retest, confirmation (AID 2467); assay type: functional, cell-based

O=C(c1cn(-c2ccc(Cl)c(Cl)c2)nn1)C1CC1
EC50 [1]: 7.57 µM (active)
EC50 [2]: 10.6 µM (active)
EC50 (H4): > 60 µM (not active)

CCn1ncc(C(=O)Nc2cccc(Cl)c2)c1C
EC50 [1]: 0.244 µM (active)
EC50 [2]: 5.61 µM (active)
EC50 (H4): 109 µM (active)

O=C(Nc1ccc(N2CCCCCC2)cc1)c1ccccc1Cl
IC50 [3]: > 47.1 µM (inactive)
EC50 [4]: > 53 µM (inactive)

N#CCC(N)=C(C#N)C#N
EC50 [5]: 54.9 µM (active)
EC50 [6]: 169 µM (active)

CCOc1ccc2c(c1)=C(NN1C(=O)c3ccccc3C1=O)C(=O)N=2
IC50 [3]: > 47.1 µM (inactive)
EC50 [4]: > 53 µM (inactive)

COc1ccc(-c2cc3ccc(OCC(N)=O)cc3oc2=O)cc1OC
EC50 [5]: > 300 µM (not active)
EC50 [6]: > 300 µM (not active)

Cc1nc2ccc(NC(=O)CCC3CCCC3)cc2s1
EC50 [1]: 10.7 µM (active)
EC50 [2]: 28.8 µM (active)
EC50 (H4): 15.2 µM (active)

CCN1C(=O)C(=C2C=C(C)OC(C)=C2)C(=O)N(CC)C1=S
EC50 [1]: > 120 µM (not active)
EC50 [2]: > 120 µM (not active)
EC50 (H4): > 120 µM (not active)

O=S(=O)(c1cccc(-c2csc(-c3cccnc3)n2)c1)N1CCOCC1
EC50 [5]: > 300 µM (not active)
EC50 [6]: > 300 µM (not active)

CCOC(=O)c1cc(C(=O)OCC)cc(-n2c(C)cc(C(=O)CN3CCOCC3)c2C)c1
EC50 [5]: > 300 µM (not active)
EC50 [6]: > 300 µM (not active)

Cn1c(C(=O)NC2CCCCC2)cc2c(=O)n3ccccc3nc21
EC50 [1]: > 120 µM (not active)
EC50 [2]: 8.85 µM (active)
EC50 (H4): 29.3 µM (active)

CN1/C(=C/C=C(C#N)C#N)C(C)(C)c2ccccc21
EC50 [5]: 248 µM (active)
EC50 [6]: > 300 µM (inconclusive)

CC(C(=O)c1ccccc1)[n+]1cccc(Br)c1 (centres undefined)
EC50 [7]: > 150 µM (inactive)
EC50 [8]: > 38 µM (not active)

COc1ccc(N2C(=O)CC(c3ccc([N+](=O)[O-])cc3)C2=O)cc1 (centres undefined)
IC50 [3]: > 47.1 µM (inactive)
EC50 [4]: > 53 µM (inactive)

Cn1c(SCc2ccccc2F)nnc1-c1cnccn1
EC50 [1]: 0.166 µM (active)
EC50 [2]: 35.2 µM (active)
EC50 (H4): 4.22 µM (active)

O=C(CSc1ccccc1)N(c1ccc(Br)cc1)c1nccs1
IC50 [3]: > 47.1 µM (inactive)
EC50 [4]: > 53 µM (inactive)

CNC(=O)c1c(NC(=O)c2ccc(S(=O)(=O)N3CCCCC3C)cc2)sc2c1CCN(C)C2 (centres undefined)
EC50 [5]: > 300 µM (not active)
EC50 [6]: > 300 µM (not active)

COc1ccc(NC(=O)c2ccc(-c3csc(C)n3)cc2)cc1
EC50 [1]: 3.97 µM (active)
EC50 [2]: 1.24 µM (active)
EC50 (H4): > 120 µM (not active)

COc1cc(NC(=O)CSc2nc3ncnc(N)c3[nH]2)c(C(=O)O)cc1OC
EC50 [5]: 29.2 µM (active)
EC50 [6]: 30.3 µM (active)

N#CC1=C(N)OC2=C(C(=O)CCC2)C1c1ccccc1 (centres undefined)
EC50 [5]: > 300 µM (not active)
EC50 [6]: > 300 µM (not active)

COc1ccc(C2=NCN(c3ccc(C)cc3)C(S)=N2)cc1
EC50 [1]: 6.32 µM (active)
EC50 [2]: > 120 µM (not active)
EC50 (H4): 7.4 µM (active)

O=[N+]([O-])c1ccc2c(c1)C(O)n1nc(-c3ccccc3)nc1S2 (centres undefined)
EC50 [1]: > 120 µM (not active)
EC50 [2]: > 120 µM (not active)
EC50 (H4): > 120 µM (not active)

O=C(NCC1CCCO1)C(c1ccc(F)cc1)N(Cc1ccc(F)cc1)C(=O)Cn1nnc(-c2cccs2)n1 (centres undefined)
EC50 [7]: > 160 µM (inactive)
EC50 [8]: > 38 µM (not active)

COC(=O)c1cc(C)sc1NC(=O)c1cccnc1
EC50 [7]: 62.4 µM (active)
EC50 [8]: > 38 µM (not active)

N#C/C=C1\Sc2ccccc2C(=O)N1CC(=O)N1CCN(S(=O)(=O)c2ccccc2)CC1
EC50 [1]: 13.2 µM (active)
EC50 [2]: 16 µM (active)
EC50 (H4): 46.7 µM (active)

CCn1c(=O)n(CC(=O)N2CCN(c3ccccc3F)CC2)c(=O)c2ccccc21
EC50 [7]: > 160 µM (inactive)
EC50 [8]: > 38 µM (not active)

CCSc1nc2ccccc2n1CC(=O)N1CCCCC1
IC50 [3]: > 47.1 µM (inactive)
EC50 [4]: > 53 µM (inactive)

COc1ccccc1N1CCN(Cc2c(F)cccc2Cl)CC1
IC50 [3]: > 47.1 µM (inactive)
EC50 [4]: > 53 µM (inactive)

CCOc1ccc(/C=C(\C#N)C(=O)NC2CC2)c(OCC)c1
IC50 [3]: > 47.1 µM (inactive)
EC50 [4]: > 53 µM (inactive)

CC(C)NC(=O)CN1C(=O)CSc2ccc(S(=O)(=O)N3CCCC3)cc21
IC50 [3]: > 47.1 µM (inactive)
EC50 [4]: > 53 µM (inactive)

COc1cc(OC)cc(C(=O)Nc2ccc(S(=O)(=O)Nc3cnc4ccccc4n3)cc2)c1
IC50 [3]: > 47.1 µM (inactive)
EC50 [4]: > 53 µM (inactive)

O=[N+]([O-])c1cccc(/C=N/NC2=NCCCCC2)c1
IC50 [3]: > 47.1 µM (inactive)
EC50 [4]: > 53 µM (inactive)
